# How the values were obtained:
# Mus musculus [1] = assay: (§1) In vivo analgesic activity evaluated by using acetic acid writhing test in mice administered subcutaneously at a dose of 2 mg/kg; type: functional; details: sc, route subcutaneous
# Mus musculus [2] = assay: as §1; type: functional; details: sc, route subcutaneous; remark: listed apart in the source
# Mus musculus [3] = species: Mus musculus; assay: […]; type: functional; details: sc, route subcutaneous
# [4] = Toxicity in mice administered subcutaneously; details: mouse, in vivo, sc
# Mus musculus [5] = assay: (§2) In vivo analgesic activity evaluated by using acetic acid writhing test in mice administered subcutaneously at a dose of 0.2 mg/kg; type: functional; details: sc, route subcutaneous
# Mus musculus [6] = assay: as §2; type: functional; details: sc, route subcutaneous; remark: listed apart in the source
# Mus musculus [7] = assay: In vivo analgesic activity evaluated by using acetic acid writhing test in mice administered subcutaneously at a dose of 0.05 mg/kg; type: functional; details: sc, route subcutaneous
# Mus musculus [8] = assay: (§3) In vivo analgesic activity evaluated by using acetic acid writhing test in mice administered subcutaneously at a dose of 5 mg/kg; type: functional; details: sc, route subcutaneous
# Mus musculus [9] = assay: as §3; type: functional; details: sc, route subcutaneous; remark: listed apart in the source
# Mus musculus [10] = assay: (§4) In vivo analgesic activity evaluated by using acetic acid writhing test in mice administered subcutaneously at a dose of 10 mg/kg; type: functional; details: sc, route subcutaneous
# Mus musculus [11] = assay: as §4; type: functional; details: sc, route subcutaneous; remark: listed apart in the source
# Mus musculus [12] = assay: In vivo analgesic activity evaluated by using acetic acid writhing test in mice administered subcutaneously at a dose of […]; type: functional; details: sc, dose 2.5 mg/kg, route subcutaneous
# Mus musculus [13] = assay: In vivo analgesic activity evaluated by using acetic acid writhing test in mice administered subcutaneously at a dose of 20 mg/kg; type: functional; details: sc, route subcutaneous
# Mus musculus [14] = assay: (§5) In vivo analgesic activity evaluated by using acetic acid writhing test in mice administered subcutaneously at a dose of 0.02 mg/kg; type: functional; details: sc, route subcutaneous
# Mus musculus [15] = assay: as §5; type: functional; details: sc, route subcutaneous; remark: listed apart in the source
structure (smiles),measurement,setting,value
C(CCCN1CC[N+]2(CCCC2)CC1)CCN1CC[N+]2(CCCC2)CC1,inhibition in vivo at 2 mg/kg,Mus musculus [1],56.6%
same,inhibition in vivo at 2 mg/kg,Mus musculus [2],72.4%
CCCCCCCCCCCCCCCCCCOC(CN1CC[N+]2(CCCC2)CC1)CN1CC[N+]2(CCCC2)CC1,inhibition in vivo at 20 mg/kg,Mus musculus [3],24%
O=C(CCCC(=O)N1CC[N+]2(CCCC2)CC1)N1CC[N+]2(CCCC2)CC1.[Br-].[Br-],Death dose,[4],20 mg/kg
same,inhibition in vivo at 2 mg/kg,Mus musculus [1],0%
same,inhibition in vivo at 2 mg/kg,Mus musculus [2],67.4%
O=C(CCCCC(=O)N1CC[N+]2(CCCC2)CC1)N1CC[N+]2(CCCC2)CC1.[Br-].[Br-],Death dose,[4],2 mg/kg
same,inhibition in vivo at 0.2 mg/kg,Mus musculus [5],8.1%
same,inhibition in vivo at 0.2 mg/kg,Mus musculus [6],70.4%
C[N+]1(C)CCN(C(=O)CCCCC(=O)N2CC[N+](C)(C)CC2)CC1,inhibition in vivo at 0.05 mg/kg,Mus musculus [7],60.1%
C(CN1CC[N+]2(CCCC2)CC1)CN1CC[N+]2(CCCC2)CC1,inhibition in vivo at 5 mg/kg,Mus musculus [8],45.5%
same,inhibition in vivo at 5 mg/kg,Mus musculus [9],0%
same,inhibition in vivo at 10 mg/kg,Mus musculus [10],4.7%
same,inhibition in vivo at 10 mg/kg,Mus musculus [11],96%
CCCCCCOC(CN1CC[N+]2(CCCC2)CC1)CN1CC[N+]2(CCCC2)CC1,inhibition in vivo at […],Mus musculus [12],49%
same,inhibition in vivo at 5 mg/kg,Mus musculus [8],61%
same,inhibition in vivo at 20 mg/kg,Mus musculus [13],100%
same,inhibition in vivo at 10 mg/kg,Mus musculus [11],91%
C(CCCCN1CC[N+]2(CCCC2)CC1)CCCN1CC[N+]2(CCCC2)CC1,inhibition in vivo at 2 mg/kg,Mus musculus [1],0%
same,inhibition in vivo at 2 mg/kg,Mus musculus [2],98.6%
O=C(CC(=O)N1CC[N+]2(CCCC2)CC1)N1CC[N+]2(CCCC2)CC1.[Br-].[Br-],Death dose,[4],40 mg/kg
same,inhibition in vivo at 2 mg/kg,Mus musculus [1],0%
same,inhibition in vivo at 2 mg/kg,Mus musculus [2],0%
O=C(CCC(=O)N1CC[N+]2(CCCC2)CC1)N1CC[N+]2(CCCC2)CC1.[Br-].[Br-],Death dose,[4],20 mg/kg
same,inhibition in vivo at 2 mg/kg,Mus musculus [1],0%
same,inhibition in vivo at 2 mg/kg,Mus musculus [2],47.7%
O=C(CCCCC(=O)N1CCNCC1)N1CCNCC1,inhibition in vivo at 5 mg/kg,Mus musculus [8],34.5%
CCOC(CN1CC[N+]2(CCCC2)CC1)CN1CC[N+]2(CCCC2)CC1,inhibition in vivo at 5 mg/kg,Mus musculus [8],34%
same,inhibition in vivo at 20 mg/kg,Mus musculus [13],90%
same,inhibition in vivo at 10 mg/kg,Mus musculus [11],46%
O=C(CCCCCCC(=O)N1CC[N+]2(CCCC2)CC1)N1CC[N+]2(CCCC2)CC1.[Br-].[Br-],Death dose,[4],0.2 mg/kg
same,inhibition in vivo at 0.02 mg/kg,Mus musculus [14],0%
same,inhibition in vivo at 0.02 mg/kg,Mus musculus [15],27.5%
C(CCCCCN1CC[N+]2(CCCC2)CC1)CCCCN1CC[N+]2(CCCC2)CC1,inhibition in vivo at 2 mg/kg,Mus musculus [1],0%
same,inhibition in vivo at 2 mg/kg,Mus musculus [2],84.6%
O=C(CCCCCC(=O)N1CC[N+]2(CCCC2)CC1)N1CC[N+]2(CCCC2)CC1.[Br-].[Br-],Death dose,[4],0.2 mg/kg
same,inhibition in vivo at 0.02 mg/kg,Mus musculus [14],0%
same,inhibition in vivo at 0.02 mg/kg,Mus musculus [15],0%
CCCCCCCCCCCCOC(CN1CC[N+]2(CCCC2)CC1)CN1CC[N+]2(CCCC2)CC1,inhibition in vivo at 20 mg/kg,Mus musculus [13],18%
CN1CCN(C(=O)CCCCC(=O)N2CCN(C)CC2)CC1,inhibition in vivo at 10 mg/kg,Mus musculus [11],10.9%
